In one series the target is T1, α2A-adrenoceptor (Homo sapiens, UniProt P08913).
T1 sequence (P08913 1-465): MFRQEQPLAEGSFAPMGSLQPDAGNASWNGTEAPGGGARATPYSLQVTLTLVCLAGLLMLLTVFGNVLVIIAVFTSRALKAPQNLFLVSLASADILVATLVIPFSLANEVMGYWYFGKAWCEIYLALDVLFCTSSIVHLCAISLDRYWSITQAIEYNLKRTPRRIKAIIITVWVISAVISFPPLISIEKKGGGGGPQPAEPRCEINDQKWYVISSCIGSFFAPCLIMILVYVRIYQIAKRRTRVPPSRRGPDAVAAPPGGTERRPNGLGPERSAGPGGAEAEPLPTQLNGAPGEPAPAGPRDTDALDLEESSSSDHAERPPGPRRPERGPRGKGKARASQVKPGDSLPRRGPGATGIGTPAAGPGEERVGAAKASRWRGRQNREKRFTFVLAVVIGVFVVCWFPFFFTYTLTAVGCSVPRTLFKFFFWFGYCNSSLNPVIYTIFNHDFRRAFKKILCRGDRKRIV
Put plainly: Intrinsic activity, Tango beta-lactamase reporter assay. Format: cell-based. As for the experimental part: The intrinsic activity at α2A-adrenoceptor was assessed by the Tango assay technology that uses a mammalian-optimized beta-lactamase (bla) reporter gene combined with an FRET-enabled substrate to provide reliable and sensitive detection in cells. Cells are loaded with an engineered fluorescent substrate containing two fluorophores, coumarin, and fluorescein. In the absence of bla expression, the substrate molecule remains intact. In this state, excitation of the coumarin results in a transfer of fluorescence resonance energy to the fluorescein moiety and emission of green fluorescent light. However, in the presence of bla expression, the substrate is cleaved, separating the fluorophores and disrupting energy transfer. Excitation of the coumarin in the presence of bla enzyme activity results in a blue fluorescence signal.
Intrinsic activity assay was performed according to the manufacturer of the assay kit (Invitrogen, Life Technologies). Cells were harvested and resuspended in an assay medium at a density of 312,500 cells/ml. 32 μL per well of cell suspension was added to the test compound wells, the unstimulated control wells, and the stimulated control wells, and incubated for 16–24 h. To perform an agonist assay, 8 μL of 5 × of agonist in the assay medium was added to the cells. […] Then, the agonist and antagonist plates were incubated in a humidified incubator at 37 °C/5% CO2 for 5 h. After the incubation, 8 μL of LiveBLAzer™-FRET B/G substrate mixture (CCF4-AM) was loaded into cells in the absence of direct strong lighting, covered, and incubated at room temperature for 2 h.

Series [1] in a line: Pharmacokinetics in plasma after ip administration. Conditions: for concentration at 5 min / concentration at 15 min / concentration at 30 min / concentration at 60 min / concentration at 120 min / concentration at 240 min / CL/F / Tmax / Vd/F / half-life: male, Wistar, plasma; for concentration at 5 min / concentration at 15 min / concentration at 30 min / concentration at 60 min / concentration at 120 min / concentration at 240 min / CL/F / Tmax / Vd/F / half-life / volume of distribution: rat; for concentration at 5 min / concentration at 15 min / concentration at 30 min / concentration at 60 min / concentration at 120 min / concentration at 240 min: intraperitoneal, mean; for concentration at 5 min: 5 min after administration; for concentration at 15 min: 15 min after administration; for concentration at 30 min: 30 min after administration; for concentration at 60 min: 60 min after administration; for concentration at 120 min: 120 min after administration; for concentration at 240 min: 240 min after administration; for CL/F / Tmax / Vd/F / half-life / t0.5 terminal half-life / volume of distribution: ip; for half-life / t0.5 terminal half-life: rat plasma; for half-life / t0.5 terminal half-life / volume of distribution: Guanabenz 0.3 mg/kg, 4-OH-Guanabenz 0.4 mg/kg; for half-life: read-out: t0.5 terminal half-life. The format is in vivo, rat. The protocol: For the pharmacokinetic study, a group of 56 adult male rats (Wistar, 220–250 g, […]) were used in the experiment. Animals were purchased from the Animal House of the Faculty of Pharmacy of Jagiellonian University Medical College, Krakow, Poland. During the habituation period, the groups of 4 rats were kept in a plastic cage at a controlled room temperature (22 ± 2 ℃), humidity (55 ± 10%), full-spectrum cold white light (350–400 lx), in 12 h light/dark cycles (the lights on at 7:00 am, and off at 19:00 pm), and had free access to standard laboratory pellet and tap water. […] These were then given through an intraperitoneally injections (ip) at a dose of 0.3 mg/kg and 0.4 mg/kg, respectively. Blood samples were collected at 0 min (predose), 5 min, 15 min, 30 min, 60 min, 120 min, and 240 min after compound administration. Blood and brain samples were collected under general anesthesia induced by ip injections of 50 mg/kg ketamine plus 8 mg/kg xylazine. Blood samples were taken in heparinized tubes and immediately centrifuged at 3500 rpm for 10 min, and plasma was collected. Brain and plasma samples were immediately frozen at – 80 ℃ for LC/MS/MS analysis. All experimental procedures were carried out according to EU Directive 2010/63/EU and approved by the I Local Ethics Committee for Animal Experiments of the Jagiellonian University in Krakow, Poland (No. 94/2016).
The pharmacokinetic parameters were calculated using a non-compartmental approach from the average concentration values, using Phoenix WinNonlin software (Certara, Princeton, NJ 08540 USA). The first-order elimination rate constant (λz) was calculated by linear regression of time versus log concentration. Next, the area under the mean plasma and the concentration in the brain versus the time curve (AUC0→t) were estimated using the log-linear trapezoidal rule (Eq. 1), where Cn is the concentration of the last sampling of each compound1 AUC0→t=∑i=1n(Ci+Ci+1)/2·ti+1-ti+Cn/λz.
The area under the first-moment curve (AUMC0→t) was estimated by calculating of the total area under the first-moment curve using Eq. 2, where tn is the time of last sampling2 AUMC0→t=∑i=1n(ti·Ci+ti+1·Ci+1)/2·ti+1-ti+(tn·Cn)/λz+Cn/λz2.
Mean residence time (MRT, Eq. 3) was calculated as3 MRT=AUMC0→t/AUC0→t.
Total clearance (ClT, Eq. 4) was calculated as4 C1T=F·Di.p./AUC0→t.
The quantification of compounds in plasma and brain samples was performed using the Sciex API 3200 triple quadrupole mass spectrometer (Concord, Ontario, Canada) equipped with an electrospray (ESI) ionization interface. This instrument was coupled to an Elite LaChrom (Hitachi, USA) HPLC system. Data acquisition and processing were performed using Sciex Analyst 1.5.2 data collection and integration software. After preparation, the samples were injected (20 µL) onto XBridge C18 (2.1 mm × 30 mm, 3.5 μm, Waters, Milford, Massachusetts, USA) analytical column. The mobile phase consisted of 0.1% formic acid in acetonitrile (A) and 0.1% formic acid in water (B) was delivered in a gradient elution starting with 90% of eluent B, increasing for 2 min to 90% of eluent A, maintained for 3 min, and then returned for 5 min to 90% of eluent B, and maintained 90% of eluent B during 5 min at a flow rate of 300 µL/min. The total analysis time was 10 min. […] The ion spray source settings were as follows: spray voltage: 5.5 kV, heater temperature: 400 °C, curtain gas: 10 psi, source gas 1: 20 psi, and source gas 2: 20 psi.
Further dilutions were performed using the same solvent to prepare working standard solutions of the analyte at the following concentrations: 0.025, 0.05, 0.1, 0.25, 0.5, 1.0, 2.5, 5.0, 10, 25, and 50 µg/mL for calibration curve samples (CC) and 0.025, 0.075, 2.2, and 4.5 µg/mL for quality control samples (QC). […]

Where [2] appears, read: ADRAA2A, agonist, concentration 1e-8.
[3] abbreviates: ADRAA2A, agonist, concentration 1e-7.
[4] abbreviates: ADRAA2A, agonist, concentration 1e-6.

Several values for one entry are separate records, joined by “and”; a condition that tells them apart may be missing. Equal entries are not always repeated. Where two headings read alike, the source gives them in different places.

As to `N=C(N)N/N=C/c1c(Cl)cccc1Cl` [Guanabenz], the “Intrinsic activity at α2A-adrenoceptors (in words)” value on α2A-adrenoceptor is listed as “Full agonist”. For the same molecule, the “% of max response” value at α2A-adrenoceptor (ADRAA2A, agonist, concentration 1e-11) is -0.6454% and -0.8183% and -1.252% and -0.7319%. The “% of max response” value at α2A-adrenoceptor (ADRAA2A, agonist, concentration 1e-10) is -1.12% and -1.114% and -1.036% and -1.117%. Besides, the “% of max response” value at α2A-adrenoceptor (ADRAA2A, agonist, concentration 1e-9) is 0.5496% and 0.2076% and -0.728% and 0.3786%. Also, the “% of max response” value at α2A-adrenoceptor (setting [2]) was 28.3106% and 18.1657% and 31.6251%. Moreover, the Emax on α2A-adrenoceptor (ADRAA2A, agonist, concentration 1e-8, read-out: % of max response) is 34.9%. The “% of max response” value on α2A-adrenoceptor (setting [3]) was 69.7622% and 66.4917% and 70.9692%. For the same molecule, the Emax at α2A-adrenoceptor (ADRAA2A, agonist, concentration 1e-7, read-out: % of max response) was found to be 72.2%. Also, the “% of max response” value on α2A-adrenoceptor (setting [4]) is 80.6636% and 82.7247% and 76.4282%. Also, the Emax at α2A-adrenoceptor (ADRAA2A, agonist, concentration 1e-6, read-out: % of max response) worked out at 72.2%. In addition, in series [1], the concentration at 5 min was 10.2 ng/mL, the concentration at 15 min came out at 91.2 ng/mL, the concentration at 30 min came to 95.1 ng/mL and the concentration at 60 min stood at 14.2 ng/mL. Also, in series [1], the concentration at 120 min was 26.1 ng/mL, the concentration at 240 min is 8.53 ng/mL, the CL/F worked out at 13.5 mL/min/kg and the Tmax is 0.5 h. For the same molecule, in series [1], the Vd/F was found to be 1.61 L/kg, the half-life was around 1.38 h, the t0.5 terminal half-life was determined as 1.38 h and the volume of distribution amounted to 1.6 L/kg.

For `Cl.N=C(N)NN=Cc1c(Cl)cc(O)cc1Cl` [4-OH-Guanabenz, 2-[(2,6-Dichloro-4-hydroxyphenyl)methylene]hydrazinecarboximidamide Hydrochloride], the “Intrinsic activity at α2A-adrenoceptors (in words)” value on α2A-adrenoceptor is recorded as “Partial agonist”. Further, on α2A-adrenoceptor (setting [2]), the “% of max response” value is -0.7437% and -0.7189% and -0.7313% and -0.7282%. Also, the “% of max response” value on α2A-adrenoceptor (setting [3]) is 2.887% and 2.799% and 3.482%. At α2A-adrenoceptor (setting [4]), the “% of max response” value was 33.4463% and 31.1405% and 34.9698%. The “% of max response” value on α2A-adrenoceptor (ADRAA2A, agonist, concentration 1e-5) is 37.4215% and 35.9932% and 36.5487%. The molecule also registered an EC50 at α2A-adrenoceptor (agonist assay) of 316 nM. The “activity relative to full agonist brimonidine” value at α2A-adrenoceptor (agonist assay, maximal activity reached) stood at 30%. The Emax at α2A-adrenoceptor (read-out: % of max response, ADRAA2A, agonist, concentration 1e-7) was determined as 2.71%. Further, the Emax at α2A-adrenoceptor (read-out: % of max response, ADRAA2A, agonist, concentration 1e-6) was determined as 28.8%. At α2A-adrenoceptor (read-out: % of max response, ADRAA2A, agonist, concentration 1e-5), the Emax came out at 34.6%. In series [1], this molecule yielded a concentration at 5 min of 54.3 ng/mL, a concentration at 15 min of 101 ng/mL, a concentration at 30 min of 20.2 ng/mL and a concentration at 60 min of 41.9 ng/mL. Further, in series [1], the concentration at 120 min was 8.65 ng/mL, the concentration at 240 min was 6.52 ng/mL, the CL/F was 17.7 mL/min/kg and the Tmax was 0.25 h. Besides, in series [1], the Vd/F amounted to 1.75 L/kg, the half-life was around 1.15 h, the t0.5 terminal half-life was 1.14 h and the volume of distribution amounted to 1.7 L/kg.

Values taken from article PMC10539439 (Pharmacological Reports, 2023).
